Measurements published in patent publication US20060127315A1, “Methods of treating humans undergoing injection of a contrast agent” (SHIVA BIOMEDICAL, L.L.C., priority 2004, published 2006).

Experiment: Pharmacokinetics of deferiprone, single oral dose crossover study in subjects with mild renal insufficiency
Format: in vivo, human
Conditions: patients with mild to moderate renal insufficiency
Description: Blood samples were collected immediately prior to and for a period of 48 hours after each dose and the concentrations of deferiprone determined.

Cc1c(O)c(=O)ccn1C [deferiprone, 1,2-dimethyl-3-hydroxy-pyrid-4-one]
pharmacokinetic profile compared with patients with normal renal function: very similar to that reported with patients with normal renal function
